Experiments:
[1] = Fecal recovery of orally administered compounds; type: in vivo, Sprague-Dawley rats; conditions: rats, oral gavage, feces 0-48 hr after dosing
Experimental: Quantitative determination of test compound level in feces after oral gavage was performed using the same set of animals used to determine test compound concentration in plasma (Example 30). The animals were kept in metabolic cages and feces were collected from the time of dosing until 48 hr after dosing. Upon collection, feces was dried by lyophilization and ground to a visually homogenous powder. Duplicate samples of ground feces from each individual animal were weighed out and extracted using organic solvent. Extracted samples were then diluted into mobile phase and test compound levels were quantitatively determined by LC-MS/MS analysis as described in “Example 30” except that the standard curve was prepared in a feces matrix. Extraction conditions were not optimized for individual compounds, and thus may represent a minimal level of recovery.

[2] = biological target: T1, human NaP2b (SLC34A2) (Homo sapiens, UniProt O95436); assay: NaP2b-mediated Pi transport: 33P phosphate uptake into transfected HEK293 cells; type: cell-based; conditions: human protein with threonine inserted after residue 37 and N39D, 100 uM KH2PO4, read-out: pIC50 range for human Nap2b (converted)
T1 construct: host or cells: HEK293
T1 sequence (O95436 1-690): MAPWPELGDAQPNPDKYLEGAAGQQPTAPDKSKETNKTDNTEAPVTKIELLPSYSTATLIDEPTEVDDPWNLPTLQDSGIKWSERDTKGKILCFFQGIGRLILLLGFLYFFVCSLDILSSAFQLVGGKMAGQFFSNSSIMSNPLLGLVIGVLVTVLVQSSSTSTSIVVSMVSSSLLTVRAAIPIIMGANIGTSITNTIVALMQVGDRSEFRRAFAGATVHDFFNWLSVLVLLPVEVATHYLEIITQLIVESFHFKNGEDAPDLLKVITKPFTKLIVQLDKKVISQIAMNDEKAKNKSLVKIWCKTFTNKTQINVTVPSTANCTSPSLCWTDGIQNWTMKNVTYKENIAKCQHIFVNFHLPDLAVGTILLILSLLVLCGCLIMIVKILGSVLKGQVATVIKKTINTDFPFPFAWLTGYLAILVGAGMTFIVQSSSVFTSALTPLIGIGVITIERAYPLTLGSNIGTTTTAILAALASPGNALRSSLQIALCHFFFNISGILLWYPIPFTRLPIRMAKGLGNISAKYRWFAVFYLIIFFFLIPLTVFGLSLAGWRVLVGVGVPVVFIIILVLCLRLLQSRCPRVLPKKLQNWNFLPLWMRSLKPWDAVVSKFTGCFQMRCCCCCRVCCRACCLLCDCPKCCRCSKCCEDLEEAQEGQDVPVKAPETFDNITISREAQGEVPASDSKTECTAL
Experimental: (§1) Materials. HEK293 cells were obtained from the American Type Culture collection and propagated per their instructions. Expression clones for rat and human NaP2b (SLC34A2) were obtained from Open Biosystems (Catalog numbers MRN1768-9510282, and MHS1010-99823026, respectively). The sequence of the human protein was mutated to insert a threonine after residue 37, and to introduce a N39D mutation.
(§2) Inhibition of Pi Transport. The rate of phosphate (Pi) uptake into HEK293 cells was measured using a modification of the method described by Mohrmann et al. (Mohrmann, I., Mohrmann, M., Biber, J., and Murer, H. (1986) Am. J. Phys. 250(3 Pt 1):G323-30.) Transfected HEK293 cells were treated with a pharmacological agent to minimize endogenous PiT-mediated phosphate transport activity, such that the only remaining sodium-dependent phosphate transport activity is that which was bestowed by introduction of the NaP2b genes.
(§3) Cells were seeded into 96-well plates at 25,000 cells/well and cultured overnight. Lipofectamine 2000 (Invitrogen) was used to introduce the NaP2b cDNA, and the cells were allowed to approach confluence during a second overnight incubation. […] Cells were then overlayed with either choline uptake buffer or sodium uptake buffer (14 mM Tris, 137 mM sodium chloride, 5.4 mM KCl, 2.8 mM CaCl2, 1.2 mM MgSO4, 100 uM KH2PO4, PiT-silencing agent, 1 mg/mL Bovine Serum Albumin, pH 7.4) containing 6-9 uCi/mL ^33P orthophosphoric acid (Perkin Elmer) and test compound. Each compound was tested at twelve concentrations ranging from 0.1 nM to 30 uM. Assays were run in duplicate.
(§4) After incubation for 3-30 minutes at room temperature, assay mixtures were removed, and the cells were washed twice with ice cold stop solution (137 mM sodium chloride, 14 mM Tris, pH 7.4). Cells were lysed by addition of 20 μL 0.1% Tween 80 followed by 100 μL scintillation fluid, and counted using a TopCount (Perkin Elmer).
(§5) pIC50 (the negative log of the IC50) values of the test compounds were calculated using GraphPad Prism.

[3] = biological target: T2, rat NaP2b (SLC34A2) (Rattus norvegicus, UniProt Q9JJ09); assay: as above; type: cell-based; conditions: 100 uM KH2PO4, PiT-silencing agent; for IC50: read-out: pIC50 range for rat Nap2b (converted)
T2 construct: host or cells: HEK293
T2 sequence (Q9JJ09 1-695): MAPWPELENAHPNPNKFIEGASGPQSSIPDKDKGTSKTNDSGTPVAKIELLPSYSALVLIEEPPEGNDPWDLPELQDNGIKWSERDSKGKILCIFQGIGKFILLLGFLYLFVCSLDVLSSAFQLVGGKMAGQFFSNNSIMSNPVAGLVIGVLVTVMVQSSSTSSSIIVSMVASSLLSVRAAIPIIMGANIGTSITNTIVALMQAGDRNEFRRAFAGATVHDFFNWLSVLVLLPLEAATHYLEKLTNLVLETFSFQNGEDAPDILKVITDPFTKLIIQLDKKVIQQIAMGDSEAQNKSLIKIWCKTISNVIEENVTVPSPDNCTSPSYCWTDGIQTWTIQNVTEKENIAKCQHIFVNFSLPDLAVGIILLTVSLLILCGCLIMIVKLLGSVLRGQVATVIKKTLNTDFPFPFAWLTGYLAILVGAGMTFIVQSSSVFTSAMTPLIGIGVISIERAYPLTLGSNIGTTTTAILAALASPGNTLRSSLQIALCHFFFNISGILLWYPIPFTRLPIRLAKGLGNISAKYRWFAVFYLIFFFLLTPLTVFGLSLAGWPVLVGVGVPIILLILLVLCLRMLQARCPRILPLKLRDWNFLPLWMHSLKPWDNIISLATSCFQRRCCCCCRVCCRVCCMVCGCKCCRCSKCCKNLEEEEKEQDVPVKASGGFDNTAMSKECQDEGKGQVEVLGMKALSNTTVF
Experimental: as §1, §2, §3, §4, §5

[4] = system: Uptake of Phosphate from the Intestine; assay: In vivo bolus phosphorus challenge; parameters: species or system Sprague-Dawley rats; conditions: rats on low-phosphorus diet, oral drug dose 30 (unit not given) 15 min before phosphate bolus, serum 30 min post bolus
Experimental: By pretreating animals with a low phosphorus diet followed by the subsequent dosing of a phosphorus bolus, serum phosphorus levels were monitored after 30 minutes as a surrogate for intestinal phosphorus absorption. […] The in vivo bolus phosphorus challenge model used here mimics this model in rats.
Male, 7-week-old Sprague-Dawley rats (Charles-River laboratories international, Hollister, Calif.) were allowed to acclimatize for a minimum of 3 days before switching to a synthetic low-phosphorus diet (TD.85010, Harlan Teklad, Madison, Wis.) which contains 0.1% phosphorus and 0.6% calcium. At day 5, testing compounds or vehicle alone (as indicated) were orally administered at the indicated dose in a volume of 5 ml/kg, followed by a bolus gavage of monobasic sodium phosphate (1 mmol in 1 ml) 15 min after compound dosing. Serum was collected via retroorbital bleeding 30 min post phosphate bolus and phosphate levels were determined utilizing an ACE ALERA blood chemistry analyzer (Alfa Wassermann Diagnostic Technologies, West Caldwell, N.J.).
The extent of inhibition by test compounds on the elevation of serum phosphate levels in response to the bolus of phosphate is shown in Table 3 (data are expressed as % Inhibition, with 6-10 animals per data point). The differences between groups were evaluated by one-way analysis of variance with Dunnett's post hoc tests.

[5] = Determination of compound Cmax and AUC after oral gavage; type: in vivo, Sprague-Dawley rats; conditions: Sprague-Dawley, rat plasma, sampling 0.5-4 h
Experimental: Sprague-Dawley rats were orally gavaged with test article at a nominal dose of 2.5 or 10 mg/kg and blood was collected at 0.5, 1, 2 and 4 h. Blood samples were processed to plasma using K2EDTA as an anticoagulant. Plasma samples were treated with acetonitrile containing an internal standard, precipitated proteins removed by centrifugation. Supernatants were analyzed by LC-MS/MS and compound concentrations were determined by interpolated from a standard curve prepared in plasma. All compounds were orally dosed at the dosage shown, and pharmacokinetic parameters determined

[6] = Stability in simulated gastric and intestinal fluid; type: in vitro ADME; conditions: 6 hr, 1-20 μM
Experimental: Test compounds were incubated at 1-20 μM in simulated gastric fluid (SGF; standard USP solution with 3 mg/mL pepsin) or simulated intestinal fluid (SIF; standard USP solution with 3 mg/mL pancreatin) for 3 hr or 6 hr. HPLC-UV or HPLC-MS were used to determine test compound levels using peak area %. Results (Table 5) were reported as the percentage of test compound remaining after incubation in a given condition relative to test compound present at t=0 in the same condition.

[7] = system: NaPi2b; assay: Competition with phosphate: uptake assay repeated at 2.1 vs 0.1 mM phosphate; type: cell-based; conditions: potency for inhibition of NaPi2b at 2.1 vs 0.1 mM phosphate
Description: In certain preferred embodiments, the phosphate transport inhibitors of the present invention are not competitive inhibitors with respect to phosphate of Na/phosphate co-transport. In certain other preferred embodiments, the phosphate transport inhibitors of the invention are non-competitive inhibitors. Non-competitive inhibitors maintain their degree of inhibition irrespective of the local phosphate concentration. This feature is an important aspect in providing an efficient blockade of intestinal transport in postprandial state, where the local concentration of dietary phosphate can attain concentration as high as 10 mM. It is believed that competitive inhibitors are too sensitive to local phosphate concentration and unable to block phosphate uptake following a high phosphorus meal. Various methods are available for determining whether a phosphate transport inhibitor is non-competitive or competitive. For example, a phosphate uptake assay can be performed and the IC50 values for a compound at different phosphate concentrations can be determined (e.g., “Enzyme kinetics”, I. Segel, 1975, John-Wiley & Sons, p. 123). IC50 values for non-competitive inhibitors will remain the same or similar with respect to the phosphate concentration, whereas IC50 values for competitive inhibitors will increase (i.e. lose potency) as phosphate concentration increases.
To ascertain if an inhibitor was competitive for binding with phosphate, the procedure was repeated, but raising the concentration of the substrate in the assay mixture from 0.1 to 2.1 mM phosphate.

[8] = nominal 10 mg/kg (actual 7.6-11 mg/kg)
[9] = nominal 2.5 mg/kg (actual 1.9 mg/kg)

Structure (SMILES) | % recovered in feces [1, 8] | IC50 [2] | IC50 [3] | other results
O=C(O)CCSCc1cccc(C(=O)Nc2ccc(N3CCCCC3)cc2C(=O)Nc2ccn(-c3cccc(C(F)(F)F)c3)n2)c1 [Example 7, 3-((3-((4-(Piperidin-1-yl)-2-((1-(3-(trifluoromethyl)phenyl)-1H-pyrazol-3-yl)carbamoyl)phenyl)carbamoyl)benzyl)thio)propanoic acid] | 9.5% | 1 to 7.94 µM | 1 to 7.94 µM | % Inhibition of Serum P elevation [4]: 49%
O=C(O)CCOCCOCCOCCNC(=O)c1cccc(C(=O)Nc2ccc(Cl)cc2C(=O)Nc2ccn(-c3cccc(C(F)(F)F)c3)n2)c1 [Example 25, 1-(3-((4-chloro-2-((1-(3-(trifluoromethyl)phenyl)-1H-pyrazol-3-yl)-carbamoyl)phenyl)carbamoyl)phenyl)-1-oxo-5,8,11-trioxa-2-azatetradecan-14-oic acid] | 17% | – | – | AUC [5, 8]: < 3 ng·h/mL; % remaining, SGF ([6]; simulated gastric fluid with 3 mg/mL pepsin): 58%; % remaining, SIF ([6]; simulated intestinal fluid with 3 mg/mL pancreatin): 95%
O=C(O)P(=O)(O)O [PFA, reference compound] | – | – | – | Competitive with respect to Pi? [7]: Yes; pIC50 range for rat Nap2b [3]: 2-3
CN(CCN1CCOCC1)C(=O)c1cccc(C(=O)Nc2ccc(N3CCCCC3)cc2C(=O)Nc2nc(-c3cccc(C(F)(F)F)c3)n[nH]2)c1 [Example 1, N1-Methyl-N1-(2-morpholinoethyl)-N3-(4-(piperidin-1-yl)-2-((3-(3-(trifluoromethyl)phenyl)-1H-1,2,4-triazol-5-yl)carbamoyl)phenyl)isophthalamide] | – | < 1 µM | < 1 µM | –
O=C(O)Cc1cccc(SCc2cccc(C(=O)Nc3ccc(N4CCCCC4)cc3C(=O)Nc3ccn(-c4cccc(C(F)(F)F)c4)n3)c2)c1 [Example 23, 2-(3-((3-((4-(Piperidin-1-yl)-2-((1-(3-(trifluoromethyl)phenyl)-1H-pyrazol-3-yl)carbamoyl)phenyl)carbamoyl)benzyl)thio)phenyl)acetic acid] | – | < 1 µM | < 1 µM | –
O=C(O)c1cccc(SCc2cccc(C(=O)Nc3ccc(N4CCCCC4)cc3C(=O)Nc3ccn(-c4cccc(C(F)(F)F)c4)n3)c2)c1 [Example 18, 3-((3-((4-(Piperidin-1-yl)-2-((1-(3-(trifluoromethyl)phenyl)-1H-pyrazol-3-yl)carbamoyl)phenyl)carbamoyl)benzyl)thio)benzoic acid] | 60% | – | 1 to 7.94 µM | % recovered in feces ([1]; dosed at 1.9 mg/kg): 12%; Competitive with respect to Pi? [7]: No; AUC [5, 9]: 2130 ng·h/mL; Cmax [5, 9]: 678 ng/mL; AUC [5, 8]: 6050 ng·h/mL; Cmax [5, 8]: 1820 ng/mL
CN(CCOCCOCCOCCC(=O)O)Cc1cccc(C(=O)Nc2ccc(N3CCCCC3)cc2C(=O)Nc2ccn(-c3cccc(C(F)(F)F)c3)n2)c1 [Example 17, 2-Methyl-1-(3-((4-(piperidin-1-yl)-2-((1-(3-(trifluoromethyl)phenyl)-1H-pyrazol-3-yl)carbamoyl)phenyl)carbamoyl)phenyl)-5,8,11-trioxa-2-azatetradecan-14-oic acid] | – | 1 to 7.94 µM | 1 to 7.94 µM | –

Reference: patent publication US9289430B2, “Compounds and methods for inhibiting phosphate transport” (Ardelyx, Inc., priority 2010, dated 2016)
